Assays:
[1] = target: T1, CDK4/cyclin D3 (Homo sapiens, UniProt P11802); assay: Human CDK4/cyclin D3 inhibitory activity (QS S Assist CDK4/Cyclin D3_FP Kit, IMAP fluorescence polarization); assay type: biochemical; details: 50% inhibitory concentration against CDK4/cyclin D3, given as class symbol
T1 construct: purchased Carna Biosciences, Inc. QS S Assist CDK4/Cyclin D3_FP Kit
Procedure, shortened: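 IMAP fluorescence polarization kit: CDK4/cyclin D3 at 12.5-25 ng/well with kit ATP/substrate/metal mix in 20 mM HEPES pH 7.4, 0.01% Tween20, 2 mM DTT, 45 min at room temperature. FP read at 485/535 nm after 30 min binding; IC50 from dose-response fit of percent inhibition versus enzyme and no-enzyme controls.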

[2] = target: T2, CDK2/cyclin A2 (Homo sapiens, UniProt P24941); assay: Human CDK2/cyclin A2 inhibitory activity (QS S Assist CDK2/Cyclin A2_FP Kit, IMAP fluorescence polarization); assay type: biochemical; details: 50% inhibitory concentration against CDK2/cyclin A2, given as class symbol
T2 construct: purchased Carna Biosciences, Inc. QS S Assist CDK2/Cyclin A2_FP Kit
Procedure, shortened: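 Kinase activity read as fluorescence polarization (485/535 nm) after phosphorylated fluorescent substrate binds IMAP reagent (30 min, RT, dark). Enzyme (2.5 ng/well) reacted 60 min at RT with ATP/substrate/metal in HEPES pH 7.4 buffer with Tween 20 and DTT; no-enzyme wells define 0% activity; IC50 by curve fit.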

T1 sequence (P11802 whole entry): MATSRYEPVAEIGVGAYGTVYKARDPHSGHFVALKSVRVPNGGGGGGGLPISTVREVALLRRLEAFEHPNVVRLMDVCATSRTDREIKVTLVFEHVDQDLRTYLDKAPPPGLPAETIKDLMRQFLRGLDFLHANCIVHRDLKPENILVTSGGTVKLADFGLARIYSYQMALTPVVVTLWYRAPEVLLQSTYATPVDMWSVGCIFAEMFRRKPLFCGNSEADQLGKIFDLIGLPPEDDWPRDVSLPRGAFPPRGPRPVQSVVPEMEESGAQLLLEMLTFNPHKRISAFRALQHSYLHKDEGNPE
T1 sequence (P30281 whole entry partner): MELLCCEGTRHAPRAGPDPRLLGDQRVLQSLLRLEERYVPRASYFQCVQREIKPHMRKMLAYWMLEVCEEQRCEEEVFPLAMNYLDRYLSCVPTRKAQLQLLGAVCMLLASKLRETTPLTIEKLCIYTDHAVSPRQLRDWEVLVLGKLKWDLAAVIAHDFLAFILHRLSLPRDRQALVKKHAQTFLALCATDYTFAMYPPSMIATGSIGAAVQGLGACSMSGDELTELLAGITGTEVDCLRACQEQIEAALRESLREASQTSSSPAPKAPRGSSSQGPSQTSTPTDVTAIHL

## C[C@@H](O)c1cc2cnc(Nc3ccc(N4CCNCC4)cn3)nc2c(N[C@@H]2CCOC2)n1 [Compound 995]
[1]
  IC50: < 10 nM
[2]
  IC50: ≥ 100 nM

## CCNc1nc([C@@H](C)O)cc2cnc(Nc3ccc4c(n3)CCNC4)nc12 [Compound 996]
[1]
  IC50: < 10 nM
[2]
  IC50: ≥ 100 nM

## C[C@@H](O)c1cc2cnc(Nc3ccc(CN4CCN(CCO)CC4)cn3)nc2c(NC2CC2)n1 [Compound 997]
[1]
  IC50: < 10 nM
[2]
  IC50: ≥ 100 nM

## C[C@@H](O)c1cc2cnc(Nc3ccc(CN4CCN(CCO)CC4)cn3)nc2c(NC2CCC2)n1 [Compound 998]
[1]
  IC50: < 10 nM
[2]
  IC50: ≥ 100 nM

## C[C@@H](O)c1cc2cnc(Nc3ccc(CN4CCN(CCO)CC4)cn3)nc2c(NCC2CC2)n1 [Compound 999]
[1]
  IC50: < 10 nM
[2]
  IC50: ≥ 100 nM

## CCCNc1nc([C@@H](C)O)cc2cnc(Nc3ccc(N4CCC(O)CC4)nn3)nc12 [Compound 1000]
[1]
  IC50: 10 to 100 nM
[2]
  IC50: ≥ 100 nM

## CCNc1nc([C@@H](C)O)cc2cnc(Nc3ccc(N4CCNCC4)cn3)nc12 [Compound 1001]
[1]
  IC50: < 10 nM
[2]
  IC50: ≥ 100 nM

## CCCNc1nc(C2(C)COC2)cc2cnc(Nc3ccc(N4CCNCC4)cn3)nc12 [Compound 1002]
[1]
  IC50: < 10 nM
[2]
  IC50: ≥ 100 nM

## CCCNc1nc(C2(C)COC2)cc2cnc(Nc3ccc(CN4CCNCC4)cn3)nc12 [Compound 1003]
[1]
  IC50: < 10 nM
[2]
  IC50: ≥ 100 nM

## CCCNc1nc(C2CCOC2)cc2cnc(Nc3ccc(N4CCNCC4)cn3)nc12 (stereo not drawn) [Compound 1004]
[1]
  IC50: < 10 nM
[2]
  IC50: ≥ 100 nM

## CCCNc1nc(C2CCOC2)cc2cnc(Nc3ccc(CN4CCNCC4)cn3)nc12 (stereo not drawn) [Compound 1005]
[1]
  IC50: < 10 nM
[2]
  IC50: ≥ 100 nM

## CC(C)Nc1nc(C2(C)COC2)cc2cnc(Nc3ccc(N4CCNCC4)cn3)nc12 [Compound 1006]
[1]
  IC50: < 10 nM
[2]
  IC50: ≥ 100 nM

## CC(C)Nc1nc(C2CCOC2)cc2cnc(Nc3ccc(N4CCNCC4)cn3)nc12 (stereo not drawn) [Compound 1007]
[1]
  IC50: < 10 nM
[2]
  IC50: ≥ 100 nM

## CCCNc1nc([C@@H](C)OC)cc2cnc(Nc3ccc(N4CC5(CC(NC)C5)C4)cn3)nc12 [Compound 1008]
[1]
  IC50: < 10 nM
[2]
  IC50: ≥ 100 nM

## CNC1CC2(C1)CN(c1ccc(Nc3ncc4cc([C@@H](C)OC)nc(N[C@H]5CCCOC5)c4n3)nc1)C2 [Compound 1009]
[1]
  IC50: < 10 nM
[2]
  IC50: ≥ 100 nM

## CC(C)Nc1nc(C2CCOC2)cc2cnc(Nc3ccc(CN4CCN(CCO)CC4)cn3)nc12 (stereo not drawn) [Compound 1010]
[1]
  IC50: < 10 nM
[2]
  IC50: ≥ 100 nM

## OCCN1CCN(Cc2ccc(Nc3ncc4cc(C5CCOC5)nc(N[C@H]5CCCOC5)c4n3)nc2)CC1 (stereo partly drawn) [Compound 1011]
[1]
  IC50: < 10 nM
[2]
  IC50: ≥ 100 nM

## CC(C)Nc1nc(C2CCOC2)cc2cnc(Nc3ccc(CN4CCN(CC#N)CC4)cn3)nc12 (stereo not drawn) [Compound 1012]
[1]
  IC50: < 10 nM
[2]
  IC50: ≥ 100 nM

## N#CCN1CCN(Cc2ccc(Nc3ncc4cc(C5CCOC5)nc(N[C@H]5CCCOC5)c4n3)nc2)CC1 (stereo partly drawn) [Compound 1013]
[1]
  IC50: < 10 nM
[2]
  IC50: ≥ 100 nM

## CC(C)Nc1nc(C2CCOC2)cc2cnc(Nc3ccc(CN4CCN(CC#N)CC4)cn3)nc12 (stereo not drawn) [Compound 1014]
[1]
  IC50: < 10 nM
[2]
  IC50: ≥ 100 nM

## CC(C)Nc1nc([C@@H](C)O)cc2cnc(Nc3ccc(CN4CCN(CC#N)CC4)cn3)nc12 [Compound 1015]
[1]
  IC50: < 10 nM
[2]
  IC50: ≥ 100 nM

## CC(C)Nc1nc([C@@H](C)O)cc2cnc(Nc3ccc(CN4CCC(CO)CC4)cn3)nc12 [Compound 1016]
[1]
  IC50: < 10 nM
[2]
  IC50: ≥ 100 nM

## CNC(=O)CN1CCN(Cc2ccc(Nc3ncc4cc([C@@H](C)O)nc(NC(C)C)c4n3)nc2)CC1 [Compound 1017]
[1]
  IC50: < 10 nM
[2]
  IC50: ≥ 100 nM

## CC(C)Nc1nc([C@@H](C)O)cc2cnc(Nc3ccc(CN4CCN(CC(=O)N(C)C)CC4)cn3)nc12 [Compound 1018]
[1]
  IC50: < 10 nM
[2]
  IC50: ≥ 100 nM

## CC(C)Nc1nc([C@@H](C)O)cc2cnc(Nc3ccc(CN4CCC(O)CC4)cn3)nc12 [Compound 1019]
[1]
  IC50: < 10 nM
[2]
  IC50: ≥ 100 nM

## C[C@@H](O)c1cc2cnc(Nc3ccc(CN4CCC(O)CC4)cn3)nc2c(NC(C)(C)C)n1 [Compound 1020]
[1]
  IC50: < 10 nM
[2]
  IC50: ≥ 100 nM

## C[C@@H](O)c1cc2cnc(Nc3ccc(CN4CCC(CO)CC4)cn3)nc2c(NC(C)(C)C)n1 [Compound 1021]
[1]
  IC50: < 10 nM
[2]
  IC50: ≥ 100 nM

## CCCNc1nc([C@@H](C)O)cc2cnc(Nc3ccc(CN4CCC(O)CC4)cn3)nc12 [Compound 1022]
[1]
  IC50: < 10 nM
[2]
  IC50: ≥ 100 nM

## CC(C)CNc1nc([C@@H](C)O)cc2cnc(Nc3ccc(CN4CCC(O)CC4)cn3)nc12 [Compound 1023]
[1]
  IC50: < 10 nM
[2]
  IC50: ≥ 100 nM

## CC(C)CNc1nc([C@@H](C)O)cc2cnc(Nc3ccc(CN4CCC(CO)CC4)cn3)nc12 [Compound 1024]
[1]
  IC50: < 10 nM
[2]
  IC50: ≥ 100 nM

## CC(=O)c1cc2cnc(Nc3ccc4c(n3)CCNC4)nc2c(NC(C)C)n1 [Compound 1027]
[1]
  IC50: < 10 nM
[2]
  IC50: ≥ 100 nM

## CCCNc1nc(C(C)=O)cc2cnc(Nc3ccc(N4CCNCC4)cn3)nc12 [Compound 1028]
[1]
  IC50: 10 to 100 nM
[2]
  IC50: ≥ 100 nM

## CC(=O)c1cc2cnc(Nc3ccc(N4CCNCCC4=O)cn3)nc2c(NC(C)C)n1 [Compound 1029]
[1]
  IC50: < 10 nM
[2]
  IC50: ≥ 100 nM

## CCC(=O)c1cc2cnc(Nc3ccc(N4CCNCC4=O)cn3)nc2c(NC(C)C)n1 [Compound 1030]
[1]
  IC50: 10 to 100 nM
[2]
  IC50: ≥ 100 nM

## CC(=O)c1nc(NC(C)C)c2nc(Nc3ccc(N4CCNCC4=O)cn3)ncc2c1Cl [Compound 1031]
[1]
  IC50: < 10 nM
[2]
  IC50: ≥ 100 nM

## CC(C)Nc1nc([C@@H](C)O)cc2cnc(Nc3ccc(N4CC(C)NCC4=O)cn3)nc12 (stereo partly drawn) [Compound 1032]
[1]
  IC50: < 10 nM
[2]
  IC50: ≥ 100 nM

## CC(C)Nc1nc([C@@H](C)O)cc2cnc(Nc3ccc(N4C(=O)CNCC4C)cn3)nc12 (stereo partly drawn) [Compound 1033]
[1]
  IC50: < 10 nM
[2]
  IC50: ≥ 100 nM

## CCC(O)c1cc2cnc(Nc3ccc(N4CCNCC4)cn3)nc2c(NC(C)C)n1 (stereo not drawn) [Compound 1034]
[1]
  IC50: < 10 nM
[2]
  IC50: ≥ 100 nM

## CCC(O)c1cc2cnc(Nc3ccc(N4CCNCC4)cn3)nc2c(NC(C)C)n1 (stereo not drawn) [Compound 1035]
[1]
  IC50: < 10 nM
[2]
  IC50: ≥ 100 nM

## CCC(O)c1cc2cnc(Nc3ccc(N4CCNCC4=O)cn3)nc2c(NC(C)C)n1 (stereo not drawn) [Compound 1037]
[1]
  IC50: 10 to 100 nM
[2]
  IC50: ≥ 100 nM

## CC(C)Nc1nc([C@@H](C)O)cc2cnc(Nc3ccc(CN4CCCCC4)cn3)nc12 [Compound 1038]
[1]
  IC50: < 10 nM
[2]
  IC50: ≥ 100 nM

## CCCNc1nc([C@@H](C)O)cc2cnc(Nc3ccc(CN4CCC(CO)CC4)cn3)nc12 [Compound 1040]
[1]
  IC50: < 10 nM
[2]
  IC50: ≥ 100 nM

## CC(C)Nc1nc([C@@H](C)O)cc2cnc(Nc3ccc(CN4CCC(O)C4)cn3)nc12 (stereo partly drawn) [Compound 1041]
[1]
  IC50: < 10 nM
[2]
  IC50: ≥ 100 nM

## CC(C)Nc1nc(C2CC(F)(F)C2)cc2cnc(Nc3ccc(N4CCNCC4=O)cn3)nc12 [Compound 1042]
[1]
  IC50: 10 to 100 nM
[2]
  IC50: ≥ 100 nM

## C[C@@H](O)c1cc2cnc(Nc3ccc(N4CCNCC4=O)cn3)nc2c(NCC2CC2)n1 [Compound 1043]
[1]
  IC50: < 10 nM
[2]
  IC50: ≥ 100 nM

## C[C@@H](O)c1cc2cnc(Nc3ccc(N4CCNCC4=O)cn3)nc2c(NC2CC2)n1 [Compound 1044]
[1]
  IC50: 10 to 100 nM
[2]
  IC50: ≥ 100 nM

## C[C@@H](O)c1cc2cnc(Nc3ccc(N4CCNCC4=O)cn3)nc2c(NC2CCC2)n1 [Compound 1045]
[1]
  IC50: < 10 nM
[2]
  IC50: ≥ 100 nM

## CCNc1nc([C@@H](C)O)cc2cnc(Nc3ccc(CN4CCN(CCO)CC4)c(C)n3)nc12 [Compound 1046]
[1]
  IC50: < 10 nM
[2]
  IC50: ≥ 100 nM

## CCCNc1nc([C@@H](C)O)cc2cnc(Nc3ccc(CN4CCN(CCO)CC4)c(C)n3)nc12 [Compound 1047]
[1]
  IC50: < 10 nM
[2]
  IC50: ≥ 100 nM

## Cc1nc(Nc2ncc3cc([C@@H](C)O)nc(NC4CCC4)c3n2)ccc1N1CCNCC1=O [Compound 1048]
[1]
  IC50: < 10 nM
[2]
  IC50: ≥ 100 nM

## CC(C)Nc1nc([C@@H](C)O)cc2cnc(Nc3cnc(CN4CCNCC4)cn3)nc12 [Compound 1049]
[1]
  IC50: < 10 nM
[2]
  IC50: ≥ 100 nM

## CC(C)Nc1nc([C@@H](C)O)cc2cnc(Nc3cnc(CN4CCN(CCO)CC4)cn3)nc12 [Compound 1050]
[1]
  IC50: < 10 nM
[2]
  IC50: ≥ 100 nM

## C[C@@H](O)c1cc2cnc(Nc3ccc(N4CCNCC4)cn3)nc2c(NCC2CC2)n1 [Compound 1051]
[1]
  IC50: < 10 nM
[2]
  IC50: ≥ 100 nM

## CC(=O)c1cc2cnc(Nc3ccc(N4CCNCC4)cn3)nc2c(NCC2CC2)n1 [Compound 1052]
[1]
  IC50: 10 to 100 nM
[2]
  IC50: ≥ 100 nM

## CCNc1nc([C@@H](C)O)cc2cnc(Nc3cc(C)c(CN4CCN(CCO)CC4)cn3)nc12 [Compound 1053]
[1]
  IC50: 10 to 100 nM
[2]
  IC50: ≥ 100 nM

## CCCNc1nc([C@@H](C)O)cc2cnc(Nc3cc(C)c(CN4CCN(CCO)CC4)cn3)nc12 [Compound 1054]
[1]
  IC50: 10 to 100 nM
[2]
  IC50: ≥ 100 nM

## Cc1cc(Nc2ncc3cc([C@@H](C)O)nc(NC(C)C)c3n2)ncc1CN1CCN(CCO)CC1 [Compound 1055]
[1]
  IC50: 10 to 100 nM
[2]
  IC50: ≥ 100 nM

## COC(=O)N1CCN(c2ccc(Nc3ncc4cc([C@@H](C)OC)nc(N[C@H]5CCCOC5)c4n3)nn2)CC1 [Compound 1056]
[1]
  IC50: 10 to 100 nM
[2]
  IC50: ≥ 100 nM

## CC(C)Nc1nc([C@@H](C)O)cc2cnc(Nc3ccc(CN4CCCC(O)C4)cn3)nc12 (stereo partly drawn) [Compound 1057]
[1]
  IC50: < 10 nM
[2]
  IC50: ≥ 100 nM

## CC(C)Nc1nc([C@@H](C)O)cc2cnc(Nc3ccc(O[C@@H]4CCN(CCO)C4)cn3)nc12 [Compound 1058]
[1]
  IC50: < 10 nM
[2]
  IC50: ≥ 100 nM

— US10124004B2, “Pyrido[3,4-d]pyrimidine derivative and pharmaceutically acceptable salt thereof” (Teijin Pharma Limited, priority 2015, dated 2018)
